Test results: US11008282B2, “Bicyclic-compounds for use as a medicament, in particular for treatment of parkinson's disease” (CAPROTEC BIOANALYTICS GMBH, priority 2015, dated 2021)
“Also recorded” adds a separate entry of the source. Read-outs that look alike come from different tables or passages of the source.

How the values were obtained:
COMT [1] = biological target: T1, COMT (Homo sapiens, UniProt P21964); assay: COMT activity microplate assay (aesculetin methylation, fluorometric); format: biochemical
T1 construct: His; host or cells: E. coli BL21
T1 sequence (P21964 1-221 isoform P21964-2): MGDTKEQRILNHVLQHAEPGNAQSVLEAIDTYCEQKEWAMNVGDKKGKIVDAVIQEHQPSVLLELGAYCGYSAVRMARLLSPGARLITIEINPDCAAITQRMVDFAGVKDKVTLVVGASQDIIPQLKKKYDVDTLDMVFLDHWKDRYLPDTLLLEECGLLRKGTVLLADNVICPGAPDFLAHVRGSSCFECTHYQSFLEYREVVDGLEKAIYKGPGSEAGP

ADI1 = biological target: T2, ADI1 (Homo sapiens, UniProt Q9BV57); assay: CCMS differential competition, HepG2 lysate, active capture compound CPT-224; format: binding; conditions: CPT-224 1 μM; for Fc: fold change assay vs competition, 50 μM competitor; for MS/MS: with 50 μM competitor, HepG2 lysate
T2 construct: performing CCMS experiments in the hepatoma-derived cell line HepG2; host or cells: HepG2 lysate
T2 sequence (Q9BV57 1-179): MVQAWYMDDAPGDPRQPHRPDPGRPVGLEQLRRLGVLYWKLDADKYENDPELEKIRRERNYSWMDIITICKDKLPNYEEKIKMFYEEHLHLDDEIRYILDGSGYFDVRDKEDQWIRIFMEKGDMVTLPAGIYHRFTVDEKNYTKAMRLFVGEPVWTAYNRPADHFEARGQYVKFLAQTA

CCBL2 = biological target: T3, CCBL2 (Homo sapiens, UniProt Q6YP21); assay: as above; format: binding; conditions: CPT-224 1 μM; for Fc: fold change assay vs competition, 50 μM competitor; for MS/MS: with 50 μM competitor, HepG2 lysate
T3 construct: performing CCMS experiments in the hepatoma-derived cell line HepG2; host or cells: HepG2 lysate
T3 sequence (Q6YP21 whole entry): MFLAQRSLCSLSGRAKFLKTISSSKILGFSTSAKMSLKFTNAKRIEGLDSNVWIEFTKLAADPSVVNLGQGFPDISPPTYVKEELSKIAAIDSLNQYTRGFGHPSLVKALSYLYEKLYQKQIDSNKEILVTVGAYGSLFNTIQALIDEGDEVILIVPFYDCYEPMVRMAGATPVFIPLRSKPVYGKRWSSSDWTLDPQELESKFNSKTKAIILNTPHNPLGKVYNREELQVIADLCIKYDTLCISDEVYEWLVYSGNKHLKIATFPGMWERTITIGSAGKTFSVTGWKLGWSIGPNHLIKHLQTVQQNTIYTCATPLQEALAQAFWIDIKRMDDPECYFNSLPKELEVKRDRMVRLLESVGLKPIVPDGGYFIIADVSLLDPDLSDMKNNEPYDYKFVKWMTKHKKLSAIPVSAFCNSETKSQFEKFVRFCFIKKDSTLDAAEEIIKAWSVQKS

GCDH = biological target: T4, GCDH (Homo sapiens, UniProt Q92947); assay: as above; format: binding; conditions: CPT-224 1 μM; for Fc: fold change assay vs competition, 50 μM competitor; for MS/MS: with 50 μM competitor, HepG2 lysate
T4 construct: performing CCMS experiments in the hepatoma-derived cell line HepG2; host or cells: HepG2 lysate
T4 sequence (Q92947 45-438): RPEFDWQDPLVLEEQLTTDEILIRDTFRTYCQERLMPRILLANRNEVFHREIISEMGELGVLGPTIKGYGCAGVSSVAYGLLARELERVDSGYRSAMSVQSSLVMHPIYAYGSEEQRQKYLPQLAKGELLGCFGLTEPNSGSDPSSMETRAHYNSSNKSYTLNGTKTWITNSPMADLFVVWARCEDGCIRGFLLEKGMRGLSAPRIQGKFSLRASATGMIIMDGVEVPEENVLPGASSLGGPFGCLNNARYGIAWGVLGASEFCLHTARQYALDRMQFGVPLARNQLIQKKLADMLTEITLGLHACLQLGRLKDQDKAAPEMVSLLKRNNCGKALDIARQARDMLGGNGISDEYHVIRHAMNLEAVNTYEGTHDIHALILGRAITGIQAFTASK

COMT [2] = biological target: T5, COMT (Homo sapiens, UniProt P21964); assay: CCMS differential competition and dose-dependent capturing, HepG2 lysate; format: binding; conditions: for Fc: fold change assay vs competition, 50 μM competitor; for Fc / MS/MS: CPT-224 1 μM; for MS/MS: with 50 μM competitor, HepG2 lysate; for competition of COMT capture, dose-dependent capturing: CPT-224 5 μM to 40 nM
T5 construct: performing CCMS experiments in the hepatoma-derived cell line HepG2; host or cells: HepG2 lysate
T5 sequence (P21964 1-271): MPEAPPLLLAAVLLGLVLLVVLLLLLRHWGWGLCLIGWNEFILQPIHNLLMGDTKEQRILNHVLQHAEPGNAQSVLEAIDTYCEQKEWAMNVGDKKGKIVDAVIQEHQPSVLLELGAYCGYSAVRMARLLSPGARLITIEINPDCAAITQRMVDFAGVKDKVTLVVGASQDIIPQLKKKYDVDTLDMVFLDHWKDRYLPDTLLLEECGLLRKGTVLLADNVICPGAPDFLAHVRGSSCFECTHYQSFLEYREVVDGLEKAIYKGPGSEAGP

AKR1B10 = biological target: T6, AKR1B10 (Homo sapiens, UniProt O60218); assay: CCMS differential competition, HepG2 lysate, inactive capture compound CPT-220; format: binding; conditions: CPT-220 1 μM; for Fc: fold change assay vs competition, 50 μM competitor; for MS/MS: with 50 μM competitor, HepG2 lysate
T6 construct: performing CCMS experiments in the hepatoma-derived cell line HepG2; host or cells: HepG2 lysate
T6 sequence (O60218 whole entry): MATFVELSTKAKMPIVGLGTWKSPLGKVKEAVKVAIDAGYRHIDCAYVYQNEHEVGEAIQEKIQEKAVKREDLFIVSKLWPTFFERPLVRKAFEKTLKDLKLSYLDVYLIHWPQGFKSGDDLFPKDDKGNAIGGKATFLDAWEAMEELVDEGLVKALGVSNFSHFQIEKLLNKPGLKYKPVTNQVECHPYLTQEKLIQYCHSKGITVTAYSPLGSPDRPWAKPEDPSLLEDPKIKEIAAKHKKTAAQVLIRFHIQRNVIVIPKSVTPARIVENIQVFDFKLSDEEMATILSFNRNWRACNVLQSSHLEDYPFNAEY

NIPSNAP3A = biological target: T7, NIPSNAP3A (Homo sapiens, UniProt Q9UFN0); assay: as above; format: binding; conditions: CPT-220 1 μM; for Fc: fold change assay vs competition, 50 μM competitor; for MS/MS: with 50 μM competitor, HepG2 lysate
T7 construct: performing CCMS experiments in the hepatoma-derived cell line HepG2; host or cells: HepG2 lysate
T7 sequence (Q9UFN0 1-247): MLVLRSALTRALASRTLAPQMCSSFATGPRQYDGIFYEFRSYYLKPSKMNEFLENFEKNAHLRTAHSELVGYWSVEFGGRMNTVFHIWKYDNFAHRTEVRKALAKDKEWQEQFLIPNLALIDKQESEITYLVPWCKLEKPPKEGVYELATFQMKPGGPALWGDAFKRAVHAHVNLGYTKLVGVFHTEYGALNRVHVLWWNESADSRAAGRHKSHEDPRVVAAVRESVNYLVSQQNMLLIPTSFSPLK

PDXK = biological target: T8, PDXK (Homo sapiens, UniProt O00764); assay: as above; format: binding; conditions: CPT-220 1 μM; for Fc: fold change assay vs competition, 50 μM competitor; for MS/MS: with 50 μM competitor, HepG2 lysate
T8 construct: performing CCMS experiments in the hepatoma-derived cell line HepG2; host or cells: HepG2 lysate
T8 sequence (O00764 1-312): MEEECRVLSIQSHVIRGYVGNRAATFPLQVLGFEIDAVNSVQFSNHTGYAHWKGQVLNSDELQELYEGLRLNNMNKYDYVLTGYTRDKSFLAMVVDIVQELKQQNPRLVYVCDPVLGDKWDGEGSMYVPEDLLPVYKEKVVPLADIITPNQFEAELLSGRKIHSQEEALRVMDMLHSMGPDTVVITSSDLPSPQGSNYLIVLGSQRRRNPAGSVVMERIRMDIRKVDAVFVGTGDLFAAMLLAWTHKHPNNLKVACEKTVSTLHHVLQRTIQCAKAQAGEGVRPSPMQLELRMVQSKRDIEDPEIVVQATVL

COMT [3] = biological target: T1, COMT; assay: Capture assay with CPT-224 followed by anti-COMT / streptavidin Western Blot; format: binding; conditions: for competition of COMT capturing (anti-COMT Western Blot): active capture compound, competitor; for competition of crosslinking of COMT with CPT-224 (anti-Streptavidin Western Blot): recombinant COMT
HepG2 cells [4] = assay: Mitochondrial toxicity assessment (Glu/Gal), ATPlite / Mitochondrial ToxGlo assay; format: cell-based, human; conditions: for mitochondrial cytotoxicity: HepG2 cells (FIG. 7); for IC50 in galactose media compared to glucose media: ATP content, HepG2 cells
HepG2 cells [5] = conditions: human
HIBCH [6] = biological target: T9, HIBCH (Homo sapiens, UniProt Q6NVY1); assay: Capture assay with CPT-224 followed by anti-HIBCH / streptavidin Western Blot; format: binding; set-up: made in house; host or cells: E. coli BL21; conditions: for competition of HIBCH capturing (anti-HIBCH Western Blot): CPT-224, competitor; for competition of crosslinking of HIBCH with CPT-224 (anti-Streptavidin Western Blot): recombinant HIBCH
T9 sequence (Q6NVY1 33-386): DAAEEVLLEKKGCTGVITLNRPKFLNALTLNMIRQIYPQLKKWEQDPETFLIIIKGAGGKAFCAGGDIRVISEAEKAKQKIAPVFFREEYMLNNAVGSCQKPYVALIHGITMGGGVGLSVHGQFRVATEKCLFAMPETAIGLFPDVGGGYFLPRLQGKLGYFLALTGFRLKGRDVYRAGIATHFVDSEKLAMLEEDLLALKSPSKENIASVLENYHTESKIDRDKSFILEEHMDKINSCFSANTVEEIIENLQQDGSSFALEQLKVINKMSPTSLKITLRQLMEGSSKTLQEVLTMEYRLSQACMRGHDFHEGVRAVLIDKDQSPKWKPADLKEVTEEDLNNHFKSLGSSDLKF

HIBCH [7] = biological target: T9, HIBCH; assay: dCCMS and dose-dependent capturing, HepG2 lysate; format: binding; set-up: performing CCMS experiments in the hepatoma-derived cell line HepG2; host or cells: HepG2 lysate; conditions: for competition of HIBCH capture (dCCMS): CPT-224 1 μM, competitor 50 μM, HepG2 lysate; for binding to HIBCH: dCCMS (FIG. 5, FIG. 6)
[8] = in vivo; cited from earlier work
α-synuclein monomers = α-synuclein monomers (Homo sapiens, UniProt P37840); conditions: cited from earlier work
Aβ42 protofibrils = Aβ42 protofibrils (Homo sapiens, UniProt P05067); conditions: cited from earlier work
Aβ42 protofibrils, sequence (P05067 672-713 limits assumed): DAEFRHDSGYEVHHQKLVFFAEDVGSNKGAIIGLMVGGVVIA

[9] = biological target: enoyl-acyl carrier protein reductase (InhA) (Mycobacterium tuberculosis, UniProt P9WGR1); conditions: cited from earlier work
enoyl-acyl carrier protein reductase (InhA), sequence (P9WGR1 whole entry, looked up): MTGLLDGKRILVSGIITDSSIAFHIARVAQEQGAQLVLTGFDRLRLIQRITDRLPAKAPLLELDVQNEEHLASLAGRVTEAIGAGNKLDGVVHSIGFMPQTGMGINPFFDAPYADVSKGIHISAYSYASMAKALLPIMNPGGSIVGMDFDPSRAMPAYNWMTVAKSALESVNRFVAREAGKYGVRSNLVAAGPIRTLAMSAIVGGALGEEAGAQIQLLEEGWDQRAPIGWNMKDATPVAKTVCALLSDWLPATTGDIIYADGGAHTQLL

Structure (SMILES) | IC50 (COMT [1]) [nM] | Fc (ADI1) | MS/MS (ADI1) | Fc (CCBL2) | MS/MS (CCBL2) | Fc (GCDH) | MS/MS (GCDH) | Fc (COMT [2]) | MS/MS (COMT [2]) | Fc (AKR1B10) | MS/MS (AKR1B10) | Fc (NIPSNAP3A) | MS/MS (NIPSNAP3A) | Fc (PDXK) | mitochondrial cytotoxicity (HepG2 cells [4]) | mitochondrial membrane potential (HepG2 cells [5]; 50 μM) | mitochondrial membrane potential (HepG2 cells [5]; 100 μM) | competition of crosslinking of HIBCH with CPT-224 (anti-Streptavidin Western Blot) (HIBCH [6]) | competition of HIBCH capture (dCCMS) (HIBCH [7]) | IC50 in galactose media compared to glucose media (HepG2 cells [4]) | further results
CCN1C(=O)S/C(=C\c2cc(O)c(O)c([N+](=O)[O-])c2)C1=O [CPT-212] | 179 | 4.29 | 0.3 | 3.40 | 2 | 6.34 | 2.3 | 10.90 | 5 | 3.1 | 0 | 3 | 0.025 | 24.9 | significantly higher than that of entacapone and CPT-401 (A1) | 20-30 % of untreated HepG2 cells | 0-5 % of the control | competed | specifically competed | – | MS/MS (PDXK): 3.75; competition of COMT capturing (anti-COMT Western Blot) (COMT [3]): signals were abolished; competition of crosslinking of COMT with CPT-224 (anti-Streptavidin Western Blot) (COMT [3]): competed; competition of HIBCH capturing (anti-HIBCH Western Blot) (HIBCH [6]): capturing was abolished; binding to HIBCH (HIBCH [7]): identified to bind
CCN(CC)C(=O)/C(C#N)=C/c1cc(O)c(O)c([N+](=O)[O-])c1 [entacapone, reference compound] | – | – | – | – | – | – | – | – | – | – | – | – | – | – | – | more than 50 % of untreated HepG2 cells | 40-50 % of the control | – | – | a much smaller effect | toxicity [8]: more favorable toxicity profile
CCN(CC)C(=O)c1cc2cc(O)c(O)c([N+](=O)[O-])c2cc1C(=O)N(CC)CC [CPT-401, N2,N2,N3,N3-tetraethyl-6,7-dihydroxy-5-nitro-naphthalene-2,3-dicarboxamide] | 54 | 3.67 | 0.3 | 3.05 | 2.6 | 5.90 | 2.6 | 34.2 | 3 | 4.7 | 0.5 | 7.5 | 0 | 16 | low mitochondrial cytotoxicity | more than 50 % of untreated HepG2 cells | 40-50 % of the control | no competition | no competition was observed | much less than for CPT-212 (B1) | competition of COMT capture, dose-dependent capturing (COMT [2]): complete competition; MS/MS (PDXK): 0; competition of COMT capturing (anti-COMT Western Blot) (COMT [3]): signals were abolished; competition of crosslinking of COMT with CPT-224 (anti-Streptavidin Western Blot) (COMT [3]): competed
Cc1ccc(C(=O)c2cc(O)c(O)c([N+](=O)[O-])c2)cc1 [tolcapone, reference compound] | – | – | – | – | – | – | – | – | – | – | – | – | – | – | mitochondrial toxicant; also recorded: significantly higher than that of entacapone and CPT-401 (A1) | 20-30 % of untreated HepG2 cells | 0-5 % of the control | competed | specifically identified when tolcapone was used as competitor | > 4 fold | competition of COMT capture, dose-dependent capturing (COMT [2]): complete competition; inhibition of aggregation of α-synuclein monomers (α-synuclein monomers): inhibit aggregation of α-synuclein monomers; inhibition of aggregation of Aβ42 protofibrils to mature amyloid fibrils (Aβ42 protofibrils): inhibit the aggregation of Aβ42 protofibrils to mature amyloid fibrils; binding and inhibition of InhA [9]: bind and inhibit; toxicity [8]: severe hepatotoxicity in several cases; competition of HIBCH capturing (anti-HIBCH Western Blot) (HIBCH [6]): capturing was abolished; competition of HIBCH capture, dose-dependent capturing (HIBCH [7]; CPT-224 5 μM to 40 nM): competed only with tolcapone; binding to HIBCH (HIBCH [7]): identified to bind
